From patent publication US20230033360A1, “COMPOUNDS AS CD73 INHIBITORS” (BioArdis LLC, priority 2019, published 2023) come the findings set out here.

Bounds are passed on as bounds.

The target in the assay is T1, Recombinant Human 5′-Nucleotidase (CD73) (Homo sapiens, UniProt P21589).
T1 construct: CHO derived CD73 (Trp27-Lys547), with a C-terminal 6-His tag; 6-His (C); purchased R&D 5795-EN; host or cells: CHO
T1 sequence (P21589 27-547): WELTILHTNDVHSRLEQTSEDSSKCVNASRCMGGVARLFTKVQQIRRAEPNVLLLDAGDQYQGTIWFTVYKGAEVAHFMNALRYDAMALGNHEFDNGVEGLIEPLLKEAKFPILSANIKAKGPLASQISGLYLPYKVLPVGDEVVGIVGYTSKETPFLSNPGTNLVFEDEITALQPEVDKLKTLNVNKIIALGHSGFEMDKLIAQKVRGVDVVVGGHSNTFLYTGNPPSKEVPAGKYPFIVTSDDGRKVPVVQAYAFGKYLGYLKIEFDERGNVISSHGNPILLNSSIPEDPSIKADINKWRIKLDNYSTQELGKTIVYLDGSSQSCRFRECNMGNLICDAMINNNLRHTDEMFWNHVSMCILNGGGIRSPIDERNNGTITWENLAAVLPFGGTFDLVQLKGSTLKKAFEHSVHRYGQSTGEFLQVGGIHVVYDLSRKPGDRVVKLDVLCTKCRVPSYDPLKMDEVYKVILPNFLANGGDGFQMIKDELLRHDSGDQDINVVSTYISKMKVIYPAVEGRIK
The assay is described as follows: CD73 Enzyme Assay (PiColorLock inorganic phosphate detection, AMP substrate). The assay is classed as biochemical. As to conditions: human CD73 0.5 nM, AMP 30 μM, 20 min at 37° C., absorbance 635 nm; read-out: Potency (IC50). From the text:
Soluble recombinant CD73 catalyzes the conversion of adenosine monophosphate (AMP) to adenosine and inorganic phosphate. The phosphate detection reagent, PiColorLock™ (Innova Bioscience, Cat #303-0125) is based on the change in absorbance of the dye malachite green in the presence of inorganic phosphate (Pi) and this property can be exploited to measure any enzyme that generates Pi. Recombinant Human 5′-Nucleotidase (CD73) (R&D #5795-EN, CHO derived CD73 (Trp27-Lys547), with a C-terminal 6-His tag) was used in the enzymatic assay. This assay, run in a 384-well plate format (Corning® NBS™ 384 well plates, Cat #3640), is a generic method for measuring inorganic phosphate. The basic assay procedure involves two steps: 1) Enzyme reaction: The CD73 enzyme (R&D #5795-EN) is incubated in the presence or absence of compounds. AMP (sigma, cat #01930) is added to start the […] reaction. 2) Detection step: Gold mix is added to the assay system, then stabilizers are added. After incubation the absorbance of the solution is read at OD 635 nm. The recorded OD signal is proportional to the enzyme activity.
Briefly, 25 μl human CD73 (0.5 nM final concentration) in the enzymatic buffer solutions (20 mM Tris, 25 mM NaCl, 1 mM MgCl2, pH 7.5, 0.005% Tween-20) were mixed with various concentrations of the test compound (dissolved in 100% DMSO). These solutions were incubated for 15 min at 25° C., and subsequently 25 μl AMP (30 μM final concentration) was added to start the reaction. The final reaction mixture of enzyme-substrate-compound was incubated for 20 min at 37° C. Meanwhile ‘Gold mix’ was prepared shortly before use by adding 1/100 vol. of accelerator to the PiColorLock™ Gold reagent. 12 μL/well of the ‘Gold mix’ was added to assay plate containing 50 μL enzyme reaction buffer and incubated at 25° C. for 5 min. 5 μL/well stabilizer was added to the assay plate and incubated at 25° C. for 30 min. The absorbance of the well solutions was measured at 635 nm on a Spark 10M instrument (TECAN).
The percent (%) inhibition at each concentration of a compound was calculated relative to the […] value in the Max and Min control wells contained within each assay plate. The Max control wells contained enzyme and substrate as 0% inhibition, and the Min control wells only contained substrate without enzyme as 100% inhibition. The concentrations and percent inhibition values for a test compound are plotted and the concentration of the compound required to achieve 50% inhibition (IC50) was determined with a four-parameter logistic dose response equation.
In the case of `O=P(O)(O)CP(=O)(O)OC[C@H]1O[C@@H](c2csc3c(N4CC5CCCC5C4)nc(Cl)nc23)[C@H](O)[C@@H]1O` (stereo partly drawn) [Example S41, [({[(2R,3S,4R,5S)-5-(2-chloro-4-{hexahydro-1H-cyclopenta[c]pyrrol-2-yl}thieno[3,2-d]pyrimidin-7-yl)-3,4-dihydroxyoxolan-2-yl]methoxy}(hydroxy)phosphoryl)methyl]phosphonic acid], the IC50 fell in the range of 10 to 99 nM.

For the molecule `O=P(O)(O)CP(=O)(O)OC[C@H]1O[C@@H](c2cnc3c(NC4CCCC4)cc(Cl)nn23)[C@@H](F)[C@@H]1O` [Example S31, (((((2R,3R,4S,5S)-5-(6-chloro-8-(cyclopentylamino)imidazo[1,2-b]pyridazin-3-yl)-4-fluoro-3-hydroxytetrahydrofuran-2-yl)methoxy)(hydroxy)phosphoryl)methyl)phosphonic acid], the 50% inhibitory concentration (IC50) lay in the range of 10 to 99 nM.

In the case of `C[C@H](Nc1cc(Cl)nn2c(C3O[C@H](COP(=O)(O)CP(=O)(O)O)[C@@H](O)[C@@H]3F)cnc12)c1ccccc1F` (stereo partly drawn) [Example S19, (((((2R,3R,4S)-5-(6-chloro-8-(((S)-1-(2-fluorophenyl)ethyl)amino)imidazo[1,2-b]pyridazin-3-yl)-4-fluoro-3-hydroxytetrahydrofuran-2-yl)methoxy)(hydroxy)phosphoryl)methyl)phosphonic acid], the IC50 fell in the range of 10 to 99 nM.

For the molecule `O=P(O)(O)CP(=O)(O)OC[C@H]1O[C@@H](c2csc3c(N4CC5CCCC5C4)cc(Cl)nc23)[C@@H](F)[C@@H]1O` (stereo partly drawn) [Example S43, (((((2R,3R,4S,5S)-5-(5-chloro-7-(hexahydrocyclopenta[c]pyrrol-2 (1H)-yl)thieno[3,2-b]pyridin-3-yl)-4-fluoro-3-hydroxytetrahydrofuran-2-yl)methoxy)(hydroxy)phosphoryl)methyl)phosphonic acid], the half-maximal inhibitory concentration (IC50) was 10 to 99 nM.

For the molecule `O=P(O)(O)CP(=O)(O)OC[C@H]1O[C@@H](c2ncc3c(N4CCc5ccccc54)cc(Cl)nn23)[C@H](O)[C@@H]1O` [Example S40, [({[(2R,3S,4R,5S)-5-[2-chloro-4-(2,3-dihydroindol-1-yl)imidazo[1,5-b]pyridazin-7-yl]-3,4-dihydroxyoxolan-2-yl]methoxy}(hydroxy)phosphoryl)methyl]phosphonic acid], the IC50 was 1 to 9.9 nM.

Consider `O=P(O)(O)CP(=O)(O)OC[C@H]1O[C@@H](c2cnc3c(N4CCC[C@H]4c4ccccc4)cc(Cl)nn23)[C@H](O)[C@@H]1O` [Example S3, (((((2R,3S,4R,5S)-5-(6-chloro-8-((S)-2-phenylpyrrolidin-1-yl)imidazo[1,2-b]pyridazin-3-yl)-3,4-dihydroxytetrahydrofuran-2-yl)methoxy)(hydroxy)phosphoryl)methyl)phosphonic acid], for which the half-maximal inhibitory concentration (IC50) was in the range of 1 to 9.9 nM.

Regarding `O=P(O)(O)CP(=O)(O)OC[C@H]1O[C@@H](c2cnc3c(NC4CCCC4)cc(Cl)nn23)[C@H](O)[C@@H]1O` [Example S1, (((((2R,3S,4R,5S)-5-(6-chloro-8-(cyclopentylamino)imidazo[1,2-b]pyridazin-3-yl)-3,4-dihydroxytetrahydrofuran-2-yl)methoxy)(hydroxy)phosphoryl)methyl)phosphonic acid], the IC50 lay in the range of 1 to 9.9 nM.

Turning to `O=P(O)(O)CP(=O)(O)OC[C@H]1O[C@@H](c2ncc3c(N4CCC[C@H]4c4ccccc4)cc(Cl)nn23)[C@H](O)[C@@H]1O` [Example S8, (((((2R,3S,4R,5S)-5-(2-chloro-4-((S)-2-phenylpyrrolidin-1-yl)imidazo[1,5-b]pyridazin-7-yl)-3,4-dihydroxytetrahydrofuran-2-yl)methoxy)(hydroxy)phosphoryl)methyl)phosphonic acid], the IC50 lay in the range of 1 to 9.9 nM.

Turning to `O=P(O)(O)CP(=O)(O)OC[C@H]1OC(c2cnc3c(N4CC5CC5C4)cc(Cl)nn23)[C@H](O)[C@@H]1O` (stereo partly drawn) [Example S23, (((((2R,3S,4R)-5-(8-(3-azabicyclo[3.1.0]hexan-3-yl)-6-chloroimidazo[1,2-b]pyridazin-3-yl)-3,4-dihydroxytetrahydrofuran-2-yl)methoxy)(hydroxy)phosphoryl)methyl)phosphonic acid], the IC50 was less than 1 nM.

As usually defined, the IC50 is the concentration that gives 50% inhibition.
